Columns and labels:
[1] = equivalent to standard oral doses; mice and human patients; Ding et al. 2005; cited from earlier work
[2] = tested on: aneurysmal RASMC cultures; assay: Exogenous DOX on aneurysmal RASMC cultures (previous studies by the inventors); format: cell-based, rat

For `C[C@H]1c2cccc(O)c2C(=O)C2=C(O)[C@]3(O)C(=O)C(C(N)=O)=C(O)[C@@H](N(C)C)[C@@H]3[C@@H](O)[C@@H]21` [DOX, doxycycline], the “DOX concentration measured within AAA tissues” value [1] is listed as roughly 50 ng/mL, the “exogenously delivered dose observed to inhibit proliferation and elastic matrix synthesis by EaRASMCs” value ([2]; observed by the inventors) is listed as 5.0 µg/mL and the “exogenous DOX dosage that limited the viability of aneurysmal RASMC cultures” value ([2]; previous studies by the inventors) is listed as 5.0 µg/mL.

From patent publication US20190274975A1, “NANOPARTICLES FOR STIMULATING ELASTOGENESIS” (The Cleveland Clinic Foundation, priority 2013, published 2019)
